Patent US6160004A, “C-10 carbon-substituted artemisinin-like trioxane compounds having antimalarial, antiproliferative and antitumor activities” (priority 1998, dated 2000)
≈ marks a conversion by molar mass, not a printed value. Like-named read-outs stand apart in the source and are kept apart here. Each block holds one compound with its values, some of them ahead of it.

How the values were obtained:
[1] = test system: chloroquine-sensitive P. falciparum (NF54); experiment: In vitro antimalarial activity ([3H]hypoxanthine incorporation); assay type: cell-based
malaria = experiment: In vivo antimalarial activity; parameters: species or system rodents
[2] = test system: murine keratinocyte cell line PE; experiment: Growth inhibition of murine keratinocytes (MTT); assay type: cell-based, murine (SENCAR mice); settings: 100 nanomolar
Method: To determine the inhibitory effect of the compositions of the present invention on cell proliferation, screening assays were performed on a murine keratinocyte cell line PE. Cell line PE was chosen for its particular sensitivity to the induction of ornithine decarboxylase (ODC) activity by the extensively characterized tumor promoter TPA. […] PE cell culture medium consisted of Eagle's minimal essential medium without calcium chloride (Whittaker Bioproducts, Walkersville, Mass.) supplemented with 8% chelexed fetal calf serum and 1% antibiotic-antimycotic (Gibco BRL) and the addition of CaCl2 to 0.05 mM Ca^++.
MTT [3-(4,5-dimethylthiazol-2-yl)-2,5-diphenyltetraxolium bromide] was purchased from Sigma Chemical Co. (St. Louis, Mo.), and TPA was supplied by L.C. Services (Woburn, Mass.). L-[^14 C]omithine (56 μCi/mol) was from Amersham/Searle Corp. (Arlington Heights, Ill.). Chemical solvents used in all assays of biological activity were of the highest grade commercially available.
Growth Inhibition. Growth curves, shown in FIGS. 1-5, for PE cells treated with calcitriol and the C-10 carbon-substituted dimers 38, 39, 43, 44, 45, 47 and 48, and monomer 27 generated by assay for the reduction of the tetrazolium-based compound MTT, see Charmichael, et al., Cancer Res., 47:936-942 (1987). […] PE cells were seeded at a density of 5,000 cells/well in 50 μL of medium into 96-well microtiter plates. Twelve hours later, the medium was removed, and cells were treated with 100 μL of fresh medium into which the appropriate amount of calcitriol or analog dissolved in dimethyl sulfoxide (DMSO) had been added, with the concentration of DMSO held constant at 0.1%. […] At 24-hour intervals following the initial treatment of the cells with compounds, 0.1 mg (50 μL of a 2 mg/mL solution) of MTT was added to each well. After 4 hours, the MTT was removed and DMSO added to dissolve the blue formazan dye. Using a microtiter plate reader, the A505 was then determined and cell number calculated from blank-subtracted absorbance values.

[3] = test system: Ehrlich ascites tumor (EAT) cells; settings: cited from earlier work
P. berghei = settings: cited from earlier work
[4] = Water solubility at pH 7.4; assay type: physicochemical; settings: pH 7.4, water
Method: Often, solubility in water is a desirable feature of a new drug candidate. Since organic compounds bearing one or more carboxylic acid groups or phenolic groups are usually water soluble at physiological pH, we have prepared a series of 10-carbon-substituted trioxane carboxylic acids via alkene oxidation and ester saponification. Also, bisphenol (34) was prepared by hydrolysis of the corresponding bis-silyl ether.

Stability (hydrolysis) = assay type: physicochemical
[5] = In vivo acute toxicity testing; settings: preliminary
[6] = Plasmodium falciparum, chloroquine-sensitive P. falciparum NF54, in vitro
[7] = sc; read-out: ED50 subcutaneous
[8] = sc; read-out: ED90 subcutaneous

Compound: CO[C@H]1O[C@@H]2O[C@@]3(C)CC[C@H]4[C@H](C)CC[C@@H]([C@H]1C)[C@@]24OO3 [Artemether, reference compound]
- in vitro antimalarial potency relative to artemisinin ([1]; P. falciparum NF54): more potent than artemisinin

Compound: CCN(CC)CCCC(C)Nc1ccnc2cc(Cl)ccc12 (stereo not drawn) [Chloroquine, reference compound]
- ED50 (malaria; sc, read-out: ED50 subcutaneous): 1.8 mg/kg
- ED90 (malaria; sc, read-out: ED90 subcutaneous): 3.1 mg/kg

Compound: COc1cc(OC)c(C2OC3OC4(C)CCC5C(C)CCC(C2C)C35OO4)cc1C1OC2OC3(C)CCC4C(C)CCC(C1C)C24OO3 (stereo not drawn) [Dimer 43]
- antiproliferative activity relative to calcitriol [2]: at least as antiproliferative as calcitriol

Compound: CC1CCC2C(C)C(C#Cc3cccc(C#CC4OC5OC6(C)CCC7C(C)CCC(C4C)C57OO6)c3)OC3OC4(C)CCC1C32OO4 (stereo not drawn) [Dimer 44]
- antiproliferative activity relative to calcitriol [2]: at least as antiproliferative as calcitriol

Compound: CC1CCC2C(C)C(C#Cc3ccc(C#CC4OC5OC6(C)CCC7C(C)CCC(C4C)C57OO6)cc3)OC3OC4(C)CCC1C32OO4 (stereo not drawn) [Dimer 45, C-10 p-Diethynylbenzene 10-deoxoartemisinin Dimer]
- antiproliferative activity relative to calcitriol [2]: at least as antiproliferative as calcitriol

Compound: CC1CCC2C(C)C(c3ccc(C4OC5OC6(C)CCC7C(C)CCC(C4C)C57OO6)o3)OC3OC4(C)CCC1C32OO4 (stereo not drawn) [Dimer 47]
- antiproliferative activity relative to calcitriol [2]: at least as antiproliferative as calcitriol

Compound: CC1CCC2C(C)C(c3ccc(C(c4ccccc4)c4ccc(C5OC6OC7(C)CCC8C(C)CCC(C5C)C68OO7)n4C)n3C)OC3OC4(C)CCC1C32OO4 (stereo not drawn) [Dimer 48]
- antiproliferative activity relative to calcitriol [2]: at least as antiproliferative as calcitriol

Compound: C[C@@H]1CC[C@H]2[C@@H](C)C(OC3O[C@@H]4O[C@@]5(C)CC[C@H]6[C@H](C)CC[C@@H]([C@H]3C)[C@@]46OO5)O[C@@H]3O[C@@]4(C)CC[C@@H]1[C@]32OO4 (stereo partly drawn) [II-7]
- IC50 ([3]; MTT, growth inhibition): 1400 nM
- cytotoxicity relative to artemisinin (times more cytotoxic) [3]: approximately twenty-two
- cytotoxicity relative to dihydroartemisinin (times more cytotoxic) [3]: sixty
- SD90 (P. berghei; P. berghei-infected mice, parasitemia 90 percent suppressed): 10 mg/kg
- in vivo potency relative to artemisinin (P. berghei; P. berghei-infected mice): less potent than artemisinin

Compound: COc1ccc([C@@H]2O[C@@H]3O[C@@]4(C)CC[C@H]5[C@H](C)CC[C@@H]([C@H]2C)[C@@]35OO4)c(OC)c1 [Monomer 13]
- IC50 ([1]; survey data (preliminary), P. falciparum NF54): 8.9 nM

Compound: COc1ccc(C2OC3OC4(C)CCC5C(C)CCC(C2C)C35OO4)c(OC)c1 (stereo not drawn) [Monomer 13a, 10α-(1',3'-Dimethoxyphenyl)deoxoartemisininin]
- in vitro antimalarial potency relative to artemisinin ([1]; P. falciparum NF54): more potent than artemisinin
- IC50 [1, 6]: 4.2 nM

Compound: C=CCOc1ccc([C@@H]2O[C@@H]3O[C@@]4(C)CC[C@H]5[C@H](C)CC[C@@H]([C@H]2C)[C@@]35OO4)c(OCC=C)c1 [Monomer 13b]
- IC50 [1, 6]: 6.6 nM

Compound: C[C@H]1[C@H](c2ccc(O)cc2O)O[C@@H]2O[C@@]3(C)CC[C@H]4[C@H](C)CC[C@@H]1[C@@]24OO3 [Monomer 13d]
- solubility [4]: < 3 mM

Compound: CC1CCC2C(C)C(c3cccn3C)OC3OC4(C)CCC1C32OO4 (stereo not drawn) [Monomer 16a, 10α-(N-methylpyrrol-2'-yl)deoxoartemisinin]
- stability (Stability (hydrolysis)): Hydrolytically stable
- in vitro antimalarial potency relative to artemisinin ([1]; P. falciparum NF54): more potent than artemisinin
- IC50 [1, 6]: 4.6 nM
- ED50 (malaria; po; read-out: ED50 oral): 4.5 mg/kg
- ED90 (malaria; po; read-out: ED90 oral): 8.5 mg/kg
- ED50 (malaria; [7]): 0.7 mg/kg
- ED90 (malaria; [8]): 1.2 mg/kg

Compound: CC1CCC2C(C)C(c3ccco3)OC3OC4(C)CCC1C32OO4 (stereo not drawn) [Monomer 17a, 10α-(2'-Furyl)-10-deoxoartemisinin]
- stability (Stability (hydrolysis)): Hydrolytically stable
- in vitro antimalarial potency relative to artemisinin ([1]; P. falciparum NF54): more potent than artemisinin
- IC50 [1, 6]: 1.4 nM
- in vivo acute toxicity testing [5]: relative safety
- ED50 (malaria; po; read-out: ED50 oral): 9.5 mg/kg
- ED90 (malaria; po; read-out: ED90 oral): 24 mg/kg
- ED50 (malaria; [7]): 1.2 mg/kg
- ED90 (malaria; [8]): 2 mg/kg

Compound: Cc1ccc([C@@H]2O[C@@H]3O[C@@]4(C)CC[C@H]5[C@H](C)CC[C@@H]([C@H]2C)[C@@]35OO4)o1 [Monomer 17b]
- stability (Stability (hydrolysis)): Hydrolytically stable
- IC50 [1, 6]: 5.2 nM
- in vivo acute toxicity testing [5]: relative safety
- ED50 (malaria; po; read-out: ED50 oral): 15.5 mg/kg
- ED90 (malaria; po; read-out: ED90 oral): 43 mg/kg
- ED50 (malaria; [7]): 0.9 mg/kg
- ED90 (malaria; [8]): 2 mg/kg

Compound: CC1=CO[C@@H]2O[C@@]3(C)CC[C@H]4[C@H](C)CC[C@@H]1[C@@]24OO3 [olefinic compound III]
- activity against P. berghei-infected mice (P. berghei): inactive

The next lines start with the values.

- IC50 [1, 6]: 7.8 nM
Compound: COc1cc(OC)c([C@@H]2O[C@@H]3O[C@@]4(C)CC[C@H]5[C@H](C)CC[C@@H]([C@H]2C)[C@@]35OO4)c(OC)c1 [Monomer 14]

- IC50 [1, 6]: 9 nM
Compound: COc1ccc2cc(C3OC4OC5(C)CCC6C(C)CCC(C3C)C46OO5)c(OC)cc2c1 (stereo not drawn) [Monomer 15, 10α-(2',7'-dimethoxynaphth-3'-yl)deoxoartemisinin]

- IC50 [1, 6]: 16 nM
Compound: C[C@H]1[C@H](c2cccn2Cc2ccccc2)O[C@@H]2O[C@@]3(C)CC[C@H]4[C@H](C)CC[C@@H]1[C@@]24OO3 [Monomer 16b]

- IC50 [1, 6]: 9.1 nM
Compound: CCOC(=O)Cn1cccc1[C@@H]1O[C@@H]2O[C@@]3(C)CC[C@H]4[C@H](C)CC[C@@H]([C@H]1C)[C@@]24OO3 [Monomer 16d, 10α-(1'-(Ethoxycarbonylmethyl)pyrrol-2'-yl)-10-deoxoartemisinin]

- solubility [4]: 10 mM (≈ 3910 µg/mL)
Compound: CC1CCC2C(C)C(c3cccn3CC(=O)O)OC3OC4(C)CCC1C32OO4 (stereo not drawn) [Monomer 16e]

- IC50 [1, 6]: 8.6 nM
Compound: CCc1ccc([C@@H]2O[C@@H]3O[C@@]4(C)CC[C@H]5[C@H](C)CC[C@@H]([C@H]2C)[C@@]35OO4)o1 [Monomer 17c]

- IC50 [1, 6]: 10 nM
Compound: C[C@H]1[C@H](c2ccc(C(C)(C)C)o2)O[C@@H]2O[C@@]3(C)CC[C@H]4[C@H](C)CC[C@@H]1[C@@]24OO3 [Monomer 17d]

- IC50 [1, 6]: 5.1 nM
Compound: C[C@H]1[C@H](c2cccs2)O[C@@H]2O[C@@]3(C)CC[C@H]4[C@H](C)CC[C@@H]1[C@@]24OO3 [Monomer 18]

- IC50 [1, 6]: 4 nM
Compound: CC1CCC2C(C)C(c3cn(C)c4ccccc34)OC3OC4(C)CCC1C32OO4 (stereo not drawn) [Monomer 19]

- solubility [4]: 30 mM (≈ 9370 µg/mL)
Compound: CC1CCC2C(C)C(C(=O)O)OC3OC4(C)CCC1C32OO4 (stereo not drawn) [Monomer 33]
